{"source": "paper PMC9386326", "about": "“Dysregulated glucuronic acid metabolism exacerbates hepatocellular carcinoma progression and metastasis through the TGFβ signalling pathway” (Clinical and Translational Medicine, 2022)", "target": "T1, PTBP3 (Homo sapiens, UniProt O95758)", "T1 construct": "endogenous full-length protein in human hepatoma (Huh7) cells / cell lysates", "T1 sequence (O95758 whole entry)": "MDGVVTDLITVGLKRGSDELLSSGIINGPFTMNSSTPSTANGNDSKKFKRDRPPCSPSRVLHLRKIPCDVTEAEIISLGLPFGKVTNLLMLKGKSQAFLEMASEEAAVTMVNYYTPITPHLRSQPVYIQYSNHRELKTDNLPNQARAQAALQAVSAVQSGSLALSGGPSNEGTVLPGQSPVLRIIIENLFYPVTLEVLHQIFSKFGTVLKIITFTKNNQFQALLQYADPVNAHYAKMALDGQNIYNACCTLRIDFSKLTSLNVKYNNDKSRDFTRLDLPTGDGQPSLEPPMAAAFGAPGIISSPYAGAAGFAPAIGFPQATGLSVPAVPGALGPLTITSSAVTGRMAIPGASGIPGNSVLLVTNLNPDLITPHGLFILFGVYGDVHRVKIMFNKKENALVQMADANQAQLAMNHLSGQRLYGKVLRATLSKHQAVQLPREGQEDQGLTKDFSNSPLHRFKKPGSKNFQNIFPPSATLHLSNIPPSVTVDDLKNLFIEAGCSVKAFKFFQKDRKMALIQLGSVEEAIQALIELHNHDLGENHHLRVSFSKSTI", "assay": "CETSA (cell lysate, immunoblot) and DARTS (pronase)", "format": "biochemical", "details": "endogenous PTBP3 in Huh7 cells / lysates; stabilisation, authors call it potential direct binding"}
{"smiles": "O=C(O)[C@H]1O[C@H](OP(=O)(O)OP(=O)(O)OC[C@H]2O[C@@H](n3ccc(=O)[nH]c3=O)[C@H](O)[C@@H]2O)[C@H](O)[C@@H](O)[C@@H]1O", "note": "[UDP-GlcUA]", "values": [{"measurement": "CETSA (cell lysate, immunoblot) and DARTS (pronase)", "value": "PTBP3 protein stability is enhanced upon UDP‐GlcUA treatment, suggesting a potential direct binding"}]}
